Assay type in all cases: biochemical
One assay deals with T1, human ME3 enzyme (Homo sapiens, UniProt Q16798).
T1 sequence (Q16798 1-604): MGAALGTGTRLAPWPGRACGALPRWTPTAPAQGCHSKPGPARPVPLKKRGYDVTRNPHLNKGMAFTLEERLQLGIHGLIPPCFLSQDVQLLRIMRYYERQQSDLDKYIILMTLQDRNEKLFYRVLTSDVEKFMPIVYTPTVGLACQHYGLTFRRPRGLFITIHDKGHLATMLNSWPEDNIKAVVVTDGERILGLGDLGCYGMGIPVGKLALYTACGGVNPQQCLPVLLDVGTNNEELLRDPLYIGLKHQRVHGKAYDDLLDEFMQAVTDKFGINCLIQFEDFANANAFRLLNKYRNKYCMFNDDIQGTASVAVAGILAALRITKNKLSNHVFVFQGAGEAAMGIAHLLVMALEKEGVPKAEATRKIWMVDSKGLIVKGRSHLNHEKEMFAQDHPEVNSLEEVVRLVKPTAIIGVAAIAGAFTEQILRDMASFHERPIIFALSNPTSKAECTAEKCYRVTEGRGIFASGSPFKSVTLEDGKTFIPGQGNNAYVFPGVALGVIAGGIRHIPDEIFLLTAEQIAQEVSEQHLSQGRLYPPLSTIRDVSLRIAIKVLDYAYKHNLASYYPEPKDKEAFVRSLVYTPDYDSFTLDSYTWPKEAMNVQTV
Kind of assay: ME3 inhibition assay (diaphorase/resazurin coupled fluorescence). The note with it: 10 μM compound concentration; read-out: Malic Enzyme 3 % inhibition (10 μM). The method, boiled down:
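Coupled read-out: NADPH made by human ME3 (20 nM stock) drives diaphorase conversion of resazurin (50 μM) to resorufin; buffer 50 mM Tris-HCl pH 7.5, 10 mM MnCl2, 3 mM L-malate.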

The next assay deals with T2, human ME1 enzyme (Homo sapiens, UniProt P48163).
T2 sequence (P48163 1-572): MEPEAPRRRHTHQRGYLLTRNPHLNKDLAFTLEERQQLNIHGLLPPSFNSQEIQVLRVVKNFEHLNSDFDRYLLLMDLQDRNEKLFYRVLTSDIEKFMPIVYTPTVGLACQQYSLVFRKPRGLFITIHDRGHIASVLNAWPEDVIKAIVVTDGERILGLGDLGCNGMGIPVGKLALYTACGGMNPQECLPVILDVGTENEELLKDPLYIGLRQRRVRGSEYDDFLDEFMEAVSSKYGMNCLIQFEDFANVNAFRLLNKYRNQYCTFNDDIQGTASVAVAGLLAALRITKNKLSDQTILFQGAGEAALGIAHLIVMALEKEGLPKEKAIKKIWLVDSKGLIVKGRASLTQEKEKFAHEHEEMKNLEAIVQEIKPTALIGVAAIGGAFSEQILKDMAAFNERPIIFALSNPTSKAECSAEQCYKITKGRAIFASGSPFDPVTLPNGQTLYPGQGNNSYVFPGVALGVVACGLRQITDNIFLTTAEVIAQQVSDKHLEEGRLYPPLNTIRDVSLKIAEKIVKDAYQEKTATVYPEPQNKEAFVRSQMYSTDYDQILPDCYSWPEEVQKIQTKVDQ
Kind of assay: ME1 inhibition assay (diaphorase/resazurin coupled fluorescence). The note with it: 10 μM compound concentration; read-out: Malic Enzyme 1 % inhibition (10 μM). The essentials:
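Compounds at 10 μM preincubated 15 min in 50 mM Tris-HCl pH 7.5, 10 mM MnCl2, 2 mM L-malate, 10 μM resazurin, 0.01 mg/ml diaphorase, then human ME1 added for 5 min; reaction started with NADP+ and run 2 h at room temperature. Resorufin fluorescence (ex 540/em 600 nm) normalized to enzyme-only (100%) and no-enzyme (0%) controls.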

The next assay deals with human ME2 enzyme (Homo sapiens, UniProt P23368). Kind of assay: ME2 inhibition assay (diaphorase/resazurin coupled fluorescence). The note with it: 10 μM compound concentration; read-out: Malic Enzyme 2 % inhibition (10 μM). The method, boiled down:
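Human ME2 (10 μL of 60 nM) was preincubated 5 min at room temperature with compound (10 μM) in 50 mM Tris-HCl pH 7.5, 10 mM MnCl2, 7 mM L-malate, 50 μM resazurin and 0.025 mg/ml diaphorase. The reaction was started with 10 μL of 2 mM β-NAD+ and run 2 hours at room temperature. Resorufin fluorescence (ex 540/em 600 nm) was normalized to enzyme-only (100%) and no-enzyme (0%) controls as % activity.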

Structures can show the parent of a compound that is named as a salt.

human ME2 enzyme, sequence (P23368 19-584): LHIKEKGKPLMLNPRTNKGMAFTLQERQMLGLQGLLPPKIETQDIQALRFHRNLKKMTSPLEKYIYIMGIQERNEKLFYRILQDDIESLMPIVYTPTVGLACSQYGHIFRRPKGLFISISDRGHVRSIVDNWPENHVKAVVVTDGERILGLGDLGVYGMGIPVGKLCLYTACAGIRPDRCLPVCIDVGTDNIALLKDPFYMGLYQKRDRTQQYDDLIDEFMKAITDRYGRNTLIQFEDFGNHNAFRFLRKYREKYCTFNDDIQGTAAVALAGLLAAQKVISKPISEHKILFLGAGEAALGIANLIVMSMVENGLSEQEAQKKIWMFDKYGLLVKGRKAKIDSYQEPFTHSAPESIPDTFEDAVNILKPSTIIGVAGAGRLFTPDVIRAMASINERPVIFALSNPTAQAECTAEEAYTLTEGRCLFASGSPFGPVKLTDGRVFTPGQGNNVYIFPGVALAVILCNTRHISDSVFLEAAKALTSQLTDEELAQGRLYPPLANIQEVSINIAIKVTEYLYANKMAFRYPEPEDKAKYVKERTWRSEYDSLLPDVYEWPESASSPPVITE

In the case of `O=C(Cc1c[nH]c2c(F)cc(F)cc12)N1CCN(c2ccc(O)cn2)CC1` [I.167, 2-(5,7-Difluoro-1H-indol-3-yl)-1-[4-(5-hydroxy-pyridin-2-yl)-piperazin-1-yl]-ethanone], the inhibition at 10 µM on human ME3 enzyme, on human ME1 enzyme and on human ME2 enzyme was > 90% in each case.
On to `O=C(C(=O)N1CCN(c2ccc(O)cn2)CC1)c1c[nH]c2ccc(F)cc12` [I.168, 1-(5-Fluoro-1H-indol-3-yl)-2-[4-(5-hydroxy-pyridin-2-yl)-piperazin-1-yl]-ethane-1,2-dione], for which the inhibition at 10 µM at human ME3 enzyme, on human ME1 enzyme and at human ME2 enzyme was > 90% throughout.
With `CC(C)(C(=O)N1CCN(c2ccc(O)cn2)CC1)c1c[nH]c2ccc(F)cc12` [I.169, 2-(5-Fluoro-1H-indol-3-yl)-1-[4-(5-hydroxy-pyridin-2-yl)-piperazin-1-yl]-2-methyl-propan-1-one], the inhibition at 10 µM on human ME3 enzyme, on human ME1 enzyme and at human ME2 enzyme was > 90% each time.
With `O=C(CCc1cc(F)c(F)c(F)c1)N1CCN(c2ccc(O)cn2)CC1` [I.170, 1-[4-(5-Hydroxy-pyridin-2-yl)-piperazin-1-yl]-3-(3,4,5-trifluoro-phenyl)-propan-1-one], the inhibition at 10 µM at human ME3 enzyme, at human ME1 enzyme and at human ME2 enzyme was > 90% throughout.
Turning to `O=C(Cc1cc(F)c(F)c(F)c1)N1CCN(c2ccc(O)cc2)CC1` [I.171, 1-[4-(4-Hydroxy-phenyl)-piperazin-1-yl]-2-(3,4,5-trifluoro-phenyl)-ethanone], the inhibition at 10 µM on human ME3 enzyme, at human ME1 enzyme and at human ME2 enzyme was > 90% in each case.
`C=CC(=O)NC(CC(=O)N1CCN(c2ccc(O)cn2)CC1)c1ccccc1` (stereo not drawn) [I.172, N-{3-[4-(5-Hydroxy-pyridin-2-yl)-piperazin-1-yl]-3-oxo-1-phenyl-propyl}-acrylamide]: the inhibition at 10 µM at human ME3 enzyme was > 90%; at human ME1 enzyme, 50 to 69%; on human ME2 enzyme it was > 90%.
On to `CC(C)(CC(=O)N1CCN(c2ccc(O)cc2)CC1)c1ccccc1` [I.173, 1-[4-(4-Hydroxy-phenyl)-piperazin-1-yl]-3-methyl-3-phenyl-butan-1-one hydrochloride salt], for which the values for the inhibition at 10 µM on human ME3 enzyme, at human ME1 enzyme and at human ME2 enzyme were > 90%, 70 to 89% and > 90%, respectively.
Turning to `O=C(Cc1c[nH]c2cc(Cl)c(Cl)cc12)N1CCN(c2ccc(O)cn2)CC1` [I.174, 2-(5,6-Dichloro-1H-indol-3-yl)-1-[4-(5-hydroxy-pyridin-2-yl)-piperazin-1-yl]-ethanone], the inhibition at 10 µM at human ME3 enzyme, on human ME1 enzyme and at human ME2 enzyme was > 90% in each case.
For `Cc1[nH]c2ccc(Cl)cc2c1CC(=O)N1CCN(c2ccc(O)cn2)CC1` [I.175, 2-(5-Chloro-2-methyl-1H-indol-3-yl)-1-[4-(5-hydroxy-pyridin-2-yl)-piperazin-1-yl]-ethanone], the inhibition at 10 µM on human ME3 enzyme, at human ME1 enzyme and on human ME2 enzyme was > 90% throughout.
Turning to `Cc1[nH]c2cc(Cl)c(Cl)cc2c1CC(=O)N1CCN(c2ccc(O)cn2)CC1` [I.176, 2-(5,6-Dichloro-2-methyl-1H-indol-3-yl)-1-[4-(5-hydroxy-pyridin-2-yl)-piperazin-1-yl]-ethanone], the inhibition at 10 µM at human ME3 enzyme, at human ME1 enzyme and at human ME2 enzyme was > 90% in each case.

(Values after patent US11225480B2, “Malic enzyme inhibitors” (SUN PHARMA ADVANCED RESEARCH COMPANY LTD, priority 2019, dated 2022).)
